Results on twelve compounds are retold here after ChEMBL document CHEMBL1201862, “PubChem BioAssay data set” (2004).

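Results reflect a 48-hour exposure of cells in 96-well plates to compound at five concentrations. At the GI50, growth is halved.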 Activity calls are given as the source filed them. No stated cut-off is given here; in the data, active = GI50 up to about 1.1 µM and inactive = higher.

Test systems include HCT-116; HL-60; HOP-62; KM12; MOLT-4; NCI-H226; NCI-H23; OVCAR-3; RXF 393; SF-268; SF-295; SK-MEL-28; U-251; UACC-257; ACHN; DU-145; PC-3; MDA-N.
What all share (test): NCI tumour cell line growth inhibition, 48 h

As for `CCN(CC)CCNC(=O)C1COc2ccc(-c3cc(=O)c4ccccc4o3)cc2O1` (stereo not given), the GI50 was 17.8 µM (inactive) in the test on HCT-116; 13.2 µM (inactive) in the test on HL-60; 21.4 µM (inactive) in the test with HOP-62; 18.2 µM (inactive) with KM12; 20.6 µM (inactive) in the test with MOLT-4; 16.6 µM (inactive) with NCI-H226. Also, the GI50 was 22 µM (inactive) in the test on NCI-H23; 21.2 µM (inactive) with OVCAR-3; 20 µM (inactive) in the test on RXF 393; 19.5 µM (inactive) in the test on SF-268; 18.5 µM (inactive) in the test on SF-295; 17.4 µM (inactive) in the test on SK-MEL-28. Besides, the GI50 with U-251 was > 45.2 µM (inactive); in the test with UACC-257, 17.6 µM (inactive).
Consider `Cc1c(OCc2cccc3ccccc23)ccc2c(=O)cc(SCCN3CCOCC3)oc12`, for which the GI50 in the test with ACHN, in the test with DU-145, in the test on HCT-116, in the test on HL-60, in the test on HOP-62 and with KM12 was > 100 µM (inactive) throughout. The GI50 in the test with MOLT-4, in the test on NCI-H226, in the test on NCI-H23, with OVCAR-3, with PC-3 and with RXF 393 was > 100 µM (inactive) each time. For the same compound, the GI50 with SF-268, in the test with SF-295, in the test on SK-MEL-28, in the test with U-251 and with UACC-257 was > 100 µM (inactive) each time.
Take `CCC(=O)NI1OC(=O)c2ccccc21`: the GI50 in the test with ACHN is > 100 µM (inactive); with DU-145 it was > 100 µM (inactive); in the test with HCT-116, > 100 µM (inactive); in the test on HL-60, 47.3 µM (inactive); in the test on HOP-62, > 100 µM (inactive); with KM12, > 100 µM (inactive). Further, the GI50 with MOLT-4, in the test with NCI-H226, in the test on NCI-H23, in the test with OVCAR-3, in the test on PC-3 and in the test on RXF 393 was > 100 µM (inactive) throughout. For the same compound, the GI50 in the test with SF-268, with SF-295, in the test on SK-MEL-28, in the test with U-251 and in the test on UACC-257 was > 100 µM (inactive) in each case.
As for `Cc1cc(C)c(C2CC(O)C(CO)O2)cc1C` (stereo not given), the GI50 in the test with ACHN, with HCT-116, in the test with HOP-62, in the test on KM12, with MDA-N and with MOLT-4 was > 100 µM (inactive) in each case. The GI50 with NCI-H226, with NCI-H23, in the test with OVCAR-3, in the test with PC-3, with SF-268 and in the test on SF-295 was > 100 µM (inactive) each time. Also, the GI50 in the test with SK-MEL-28, in the test with U-251 and with UACC-257 was > 100 µM (inactive) in each case.
As for `CO[C@@]12C[C@@H](CNC(=O)c3cc(Br)c[nH]3)O[C@@H]1NC(=O)N2`, the GI50 with ACHN, in the test with DU-145, in the test with HCT-116, in the test on HOP-62, in the test with KM12 and in the test with NCI-H226 was > 100 µM (inactive) in each case. Also, the GI50 with NCI-H23, in the test with OVCAR-3, in the test on PC-3, with RXF 393, with SF-268 and in the test with SF-295 was > 100 µM (inactive) throughout. In addition, the GI50 in the test on SK-MEL-28, in the test with U-251 and in the test on UACC-257 was > 100 µM (inactive) in each case.
Turning to `CCCCCCCCC[C@@H]1C[C@@H]2CCC3C(C(=O)OC)=C(C)N=C(N1)N32` (stereo not given in full), the GI50 in the test on ACHN is 16.1 µM (inactive); in the test with DU-145, 6.41 µM (inactive); in the test on HCT-116, 4.25 µM (inactive); in the test with HL-60, 3.47 µM (inactive); in the test with HOP-62, 6.17 µM (inactive); in the test with KM12, 3.43 µM (inactive). Further, the GI50 in the test with MOLT-4 was 8.22 µM (inactive); in the test on NCI-H226 it was 6.98 µM (inactive); in the test with NCI-H23, 3.85 µM (inactive); with OVCAR-3, 3.21 µM (inactive); in the test with PC-3, 3.64 µM (inactive); in the test on RXF 393 it was 2.64 µM (inactive). Besides, the GI50 is 5.05 µM (inactive) with SF-268; 9.4 µM (inactive) in the test on SF-295; 21 µM (inactive) in the test on SK-MEL-28; 3.27 µM (inactive) in the test on U-251; 10.5 µM (inactive) in the test on UACC-257.
Regarding `CCC(=O)C(CCN1CCC(N2C(=O)C(CCC#N)c3ccccc32)CC1)(c1ccccc1)c1ccccc1` (stereo not given), the GI50 with ACHN is 15.9 µM (inactive); with DU-145 it was 12.2 µM (inactive); in the test on HCT-116, 4.9 µM (inactive); in the test with HL-60, 4.67 µM (inactive); in the test on HOP-62, 17.9 µM (inactive); in the test on KM12 it was 13.4 µM (inactive). In addition, the GI50 in the test with MOLT-4 is 4.56 µM (inactive); in the test on NCI-H226, 17.3 µM (inactive); in the test with NCI-H23 it was 18.2 µM (inactive); with OVCAR-3, 10.9 µM (inactive); in the test with PC-3 it was 18.5 µM (inactive); in the test with RXF 393, 3.37 µM (inactive). Moreover, the GI50 in the test with SF-268 is 16.1 µM (inactive); in the test with SF-295, 13.3 µM (inactive); in the test on SK-MEL-28, 18.7 µM (inactive); in the test on U-251, 14.6 µM (inactive); with UACC-257 it was 13 µM (inactive).
`C[P+](c1ccccc1)(c1ccc(Cl)cc1)c1ccc(Cl)cc1`: the GI50 in the test on ACHN is 29.1 µM (inactive); with DU-145, 18.4 µM (inactive); in the test with HCT-116, 6.93 µM (inactive); in the test on HOP-62, 19.5 µM (inactive); in the test on NCI-H226, 24.3 µM (inactive); with NCI-H23, 12.3 µM (inactive). Besides, the GI50 in the test with OVCAR-3 was 0.183 µM (active); in the test with PC-3 it was 20.2 µM (inactive); in the test on RXF 393, 46.2 µM (inactive); with SF-268, 38.6 µM (inactive); in the test on SK-MEL-28, 10 µM (inactive); in the test on U-251, 16.3 µM (inactive). Besides, in the test on UACC-257, the GI50 is 8.11 µM (inactive).
Turning to `S=C(NN=C1NCCCCN1)Nc1ccc(Cl)cc1`, the GI50 in the test with ACHN is 7.29 µM (inactive); in the test with HCT-116, 7.52 µM (inactive); in the test on HL-60 it was 8.18 µM (inactive); with HOP-62, 11 µM (inactive); with KM12, 14.5 µM (inactive); in the test on MDA-N, 11.4 µM (inactive). The GI50 in the test with MOLT-4 is 6.67 µM (inactive); in the test with NCI-H226, > 100 µM (inactive); with NCI-H23, 18.5 µM (inactive); with OVCAR-3, 35.8 µM (inactive); in the test with PC-3 it was 13.9 µM (inactive); in the test on RXF 393, > 100 µM (inactive). Moreover, the GI50 with SF-268 was 14.4 µM (inactive); with SF-295 it was 13.7 µM (inactive); in the test on SK-MEL-28, 31 µM (inactive); in the test on U-251, 7.71 µM (inactive); in the test with UACC-257 it was 14.8 µM (inactive).
Regarding `CCc1nc(N)nc(N)c1-c1ccc([N+](=O)[O-])c(Cl)c1`, the GI50 in the test with ACHN is 2.73 µM (inactive); with DU-145, 10.8 µM (inactive); in the test with HCT-116, 0.457 µM (active); in the test on HL-60, 0.855 µM (active); in the test on HOP-62, 7.53 µM (inactive); in the test with KM12 it was 6.87 µM (inactive). In addition, the GI50 was 4.27 µM (inactive) in the test on MOLT-4; 30.4 µM (inactive) with NCI-H226; 3.56 µM (inactive) with NCI-H23; 11.5 µM (inactive) in the test on OVCAR-3; 1.87 µM (inactive) in the test with PC-3; 16.1 µM (inactive) with RXF 393. For the same compound, the GI50 is 4.29 µM (inactive) with SF-268; 2.59 µM (inactive) in the test on SF-295; 36.5 µM (inactive) in the test with SK-MEL-28; 3.1 µM (inactive) in the test on U-251; 31 µM (inactive) with UACC-257.
Consider `O=[N+]([O-])/C=C/c1ccc2ccccc2c1`, for which the GI50 was 1.96 µM (inactive) in the test with ACHN; 4.07 µM (inactive) in the test on DU-145; 2.73 µM (inactive) in the test with HCT-116; 2.37 µM (inactive) with HL-60; 5.53 µM (inactive) with HOP-62; 1.77 µM (inactive) in the test with KM12. Further, the GI50 with NCI-H226 is 7.89 µM (inactive); in the test on NCI-H23, 3.6 µM (inactive); with OVCAR-3, 2.86 µM (inactive); in the test with PC-3 it was 6.49 µM (inactive); in the test on RXF 393, 2.49 µM (inactive); in the test with SF-268, 4.57 µM (inactive). Moreover, the GI50 was 3.99 µM (inactive) in the test with SF-295, 2.23 µM (inactive) with SK-MEL-28, 1.92 µM (inactive) in the test with U-251 and 2.6 µM (inactive) with UACC-257.
Turning to `CC(=O)OC[C@H]1O[C@@H](O[C@H]2[C@H](OC(C)=O)C=CO[C@@H]2COC(C)=O)C(OC(C)=O)[C@H]2OC(C)(C)O[C@H]21` (stereo not given in full), the GI50 in the test with ACHN, with HCT-116, in the test with HOP-62, with KM12, with MOLT-4 and in the test with NCI-H226 was > 100 µM (inactive) throughout. For the same compound, the GI50 in the test on NCI-H23 was > 100 µM (inactive); in the test with OVCAR-3, > 100 µM (inactive); with PC-3 it was > 100 µM (inactive); in the test on RXF 393, 2.43 µM (inactive); in the test with SF-268, > 100 µM (inactive); in the test on SF-295, > 100 µM (inactive). The GI50 with SK-MEL-28, with U-251 and in the test with UACC-257 was > 100 µM (inactive) throughout.
